{
  "source": "patent US7737182B2",
  "about": "“Pharmaceuticals for xerosis” (Taisho Pharmaceutical Co., Ltd., priority 2001, dated 2010)",
  "key": {"prostaglandin D receptor": {"biological_target": "T1, prostaglandin D receptor (Homo sapiens, UniProt Q13258)", "T1 construct": "separate the supernatant (PRP, or platelet-rich plasma); endogenous in cells; host or cells: human platelets (platelet-rich plasma from healthy male donors)", "T1 sequence (Q13258 1-359)": "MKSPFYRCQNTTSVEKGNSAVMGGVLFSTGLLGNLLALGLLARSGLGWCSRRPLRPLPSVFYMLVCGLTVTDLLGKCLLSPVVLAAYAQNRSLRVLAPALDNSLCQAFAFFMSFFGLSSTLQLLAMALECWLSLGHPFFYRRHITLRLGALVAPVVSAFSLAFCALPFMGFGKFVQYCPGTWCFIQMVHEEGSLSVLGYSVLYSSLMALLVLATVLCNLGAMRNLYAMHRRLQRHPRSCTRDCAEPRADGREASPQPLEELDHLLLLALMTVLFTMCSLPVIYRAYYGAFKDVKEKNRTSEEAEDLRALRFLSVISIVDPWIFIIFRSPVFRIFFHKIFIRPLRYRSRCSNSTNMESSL", "assay": "Antagonism by BW A868C of the suppression of ADP-induced human platelet aggregation", "format": "cell-based", "conditions": "human PRP, ADP 3 μmol/L", "description": "The prostaglandin D receptor selective antagonist used in the test was ((+/−)-3-benzyl-5-(6-carboxyhexyl)-1-(2-cyclohexyl-2-hydroxyethylamino)-hydantoin) (hereunder designated BW A868C) (Sigma-Aldrich Japan K.K.)\nBW A868C was diluted with ethanol to final concentrations of 0.03 μmol/L, 0.1 μmol/L, 0.3 μmol/L, 1 μmol/L, 3 μmol/L and 10 μmol/L.\nCompound No. 7 and PGD2 were diluted with ethanol to 287 nmol/L and 300 nmol/L, respectively, for subsequent use.\nBlood was taken from the cubital veins of human healthy males and sampled into a tube containing 3.13% sodium citrate. The blood sample was centrifuged at 1,000 rpm for 10 minutes at 20° C. to separate the supernatant (PRP, or platelet-rich plasma) and the residue was further centrifuged at 3,000 rpm for 10 minutes at 20° C. to separate the supernatant (PPP, or platelet-poor plasma). The platelet count of PRP was appropriately diluted with PPP to 30×10^4 platelets/μL for subsequent use.\nPlatelet aggregation was measured with a platelet aggregation measuring instrument (PAM-8C; MC MEDICAL Co., LTD.) by the Born method (Nature, vol. 194, p. 927, 1962). A portion (273 μL) of PRP (for the BW A868C groups, 1 μL of BW A868C was added at varying concentrations) was preincubated at 37° C. for 3 minutes with stirring at 1,000 rpm. After the preincubation, 1 μL of ethanol or a test substance (compound No. 7: final concentration at 95.7 nmol/L; PGD2: final concentration at 1000 nmol/L) was added and the mixture was incubated at 37° C. for 3 minutes with stirring at 1000 rpm. After the incubation, 25 μL of ADP (final concentration at 3 μmol/L) was added to induce platelet aggregation and a maximum percent aggregation for 5 minutes was measured."}, "[1]": {"tested_on": "NC/Nga mice manifesting atopic dermatitis", "assay": "Spontaneous itch-evoked scratching behavior of NC mice (Test Example 1)", "format": "in vivo", "conditions": "for Inhibition rate (%) (percent itch suppression): 0.2 ml/mouse on dorsal skin, 24-hr scratching counts before vs after; for Efficacy (significance, paired t-test): scratching counts before vs after application", "description": "About 20-week old NC/Nga mice each weighing about 30 g and manifesting atopic dermatitis were purchased from SLC and subjected to the following experiment. A magnet was buried in both hind paws of each mouse and by detecting its magnetism, the movement of the paws was measured with an itch measuring system (product of Neuroscience; when the mouse makes an action, the magnets move accordingly and a current flows through the coil; the moving magnets cause a change in the current, which is detected, measured and analyzed). Among the scratching actions, those lasting 1.5 seconds or longer were considered itch-evoked and their number was counted continuously. […] The subsequent 24-hr itch-evoked scratching behavior was measured and the number of itch-evoked scratchings after drug administration was compared with the initial count. The experimental data was processed to calculate the percent itch suppression on the basis of the total 24-hr itch-evoked scratching counts before and after drug application. For significance testing, the itch-evoked scratching counts that were obtained before and after drug application from individual animals in each group treated with a specific concentration of drug were processed by a paired t-test. Percent itch suppression (%)=(itch-evoked scratching count before drug application−itch-evoked scratching count after drug application)×100/itch-evoked scratching count before drug application (Results)"}, "BALB/c male mice [2]": {"tested_on": "BALB/c male mice", "assay": "Mouse skin's barrier function, treatment test, TEWL (Test Example 5)", "format": "in vivo", "conditions": "barrier destroyed with acetone/diethyl ether; 0.01% in ethanol, 100 μL, once a day for 2 days", "description": "Six-week-old BALB/c male mice in groups of eight were shaven in a rostral dorsolateral area of 4 cm^2 (2 cm×2 cm) with electric clippers and the shaven area was covered for 60 seconds with an absorbent cotton (2 cm×2 cm) impregnated with a 1:1 liquid mixture of acetone and diethyl ether. This treatment for destroying the skin's barrier function was performed for 3 consecutive days on once-a-day basis. Starting on the day next to completion of the treatment for barrier destruction at day 3, a solvent (ethanol, 100 μL) or a drug dissolved in the solvent (compound No. 7, PGD2, PGF2α, or PGE1, all being at 0.01% in an amount of 100 μL) was applied to the barrier destroyed site for 2 days on once-a-day basis. On the day next to the second application of the solvent or drug, the transepidermal water loss (TEWL) at the same site was measured with Tewameter (TM210 of Courage & Khazawa, Germany) to evaluate the drug's action."}, "BALB/c male mice [3]": {"tested_on": "BALB/c male mice", "assay": "Mouse skin's barrier function, preventive test, TEWL (Test Example 6)", "format": "in vivo", "conditions": "cohabitation with dermatitic NC/Nga mice; 0.01% in ethanol, 100 μL, once a day for 7 days", "description": "Six-week-old BALB/c male mice in groups of six were shaven in a rostral dorsolateral area of 4 cm^2 (2 cm×2 cm) with electric clippers and kept in the same cage as NC/Nga mice that had developed dermatitis. From the day next to the start of cohabitation, a solvent (ethanol, 100 μL) or a drug dissolved in the solvent (compound No. 7, PGD2, PGF2α, or PGE1, all being at 0.01% in an amount of 100 μL) was applied to the shaven site for 7 days on once-a-day basis.\nOn the day next to the seventh application of the solvent or drug, the transepidermal water loss (TEWL) at the same site was measured with Tewameter (TM210 of Courage & Khazawa, Germany) to evaluate the drug's action, with the solvent-applied group being used as the control group."}, "[4]": {"tested_on": "NC mice induced to manifest dermatitis", "assay": "Dermatitis score in dermatitis manifesting NC mouse models (Test Example 2)", "format": "in vivo", "conditions": "0.1% in 100% ethanol, 200 μl on dorsal back, seven times a week for 4 weeks", "description": "By suitably modifying a method known to the skilled artisan (Jpn. J. Pharmacol. 76, 175-183 (1998) Jun Hiroi, et al. Effects of Tacrolimus Hydrate (FK-506) Ointment on Spontaneous Dermatitis in NC/Nga Mice), the following test was conducted in order to confirm the antipruritic effect of compounds of the invention.\nAnimals: Four-week old SPF NC mice (male) were purchased from Japan SLC; right after their arrival, the SPF NC mice were kept together with dermatitis manifesting male NC mice (older than 20 weeks) for 2 weeks under the following conditions so as to induce itch-evoked scratching behavior. […]\nDrug administration: To the dorsal backs of the 20-wk NC mice that were induced to manifest dermatitis as the result of cohabitation with the spontaneous dermatitis manifesting NC mice, 100% ethanol, compound No. 7 (0.01%) dissolved in 100% ethanol or tacrolimus (0.1%) dissolved in 100% ethanol was applied from an Eppendorf pipette in 200-μl doses seven times a week for a period of 4 weeks. […] Dermatitis score: Dermatitic symptoms were observed and measured once a week. […]"}, "[5]": {"conditions": "concentration 0.00001% in 100% ethanol"}},
  "data": [
    {"smiles": "O=C(O)CCCCCCC1C(=O)N(Cc2ccccc2)C(=O)N1NCC(O)C1CCCCC1", "note": "(racemic) [BW A868C, ((+/−)-3-benzyl-5-(6-carboxyhexyl)-1-(2-cyclohexyl-2-hydroxyethylamino)-hydantoin)]", "values": [
      {"measurement": "concentration of BW A868C with significant antagonism of the platelet aggregation suppressing action of PGD2", "setting": "prostaglandin D receptor; PGD2 at 1000 nmol/L", "value": "≥ 0.3", "unit": "µmol/L"},
      {"measurement": "concentration of BW A868C with significant antagonism of the platelet aggregation suppressing action of compound No. 7", "setting": "prostaglandin D receptor; compound No. 7 at 95.7 nmol/L", "value": "≥ 0.1", "unit": "µmol/L"}
    ]},
    {"smiles": "COC(=O)CSCCCC[C@@H]1[C@@H](C#C[C@@H](O)C2CCCCC2)[C@H](O)C[C@H]1Cl", "note": "[Compound No. 6]", "values": [
      {"measurement": "Inhibition rate (%) (percent itch suppression)", "setting": "[1]; concentration 0.0001% in 100% ethanol", "value": 32.26, "unit": "%"},
      {"measurement": "Efficacy (significance, paired t-test)", "setting": "[1]; concentration 0.0001%", "value": "* (*: P < 0.05)"}
    ]},
    {"smiles": "O=C(O)C#CCCCC[C@@H]1[C@@H](C#C[C@@H](O)C2CCCCC2)[C@H](O)C[C@H]1Cl", "note": "[Compound No. 15]", "values": [
      {"measurement": "Inhibition rate (%) (percent itch suppression)", "setting": "[1]; concentration 0.000001% in 100% ethanol", "value": 34.61, "unit": "%"},
      {"measurement": "Efficacy (significance, paired t-test)", "setting": "[1]; concentration 0.000001%", "value": "* (*: P < 0.05)"}
    ]},
    {"smiles": "O=C(O)CSCCSC[C@@H]1[C@@H](C#C[C@@H](O)C2CCCCC2)[C@H](O)C[C@H]1Cl", "note": "[Compound No. 25]", "values": [
      {"measurement": "Inhibition rate (%) (percent itch suppression)", "setting": "[1]; [5]", "value": 21.51, "unit": "%"},
      {"measurement": "Efficacy (significance, paired t-test)", "setting": "[1]; concentration 0.00001%", "value": "* (*: P < 0.05)"}
    ]},
    {"smiles": "O=C(O)CCCCSC[C@@H]1[C@@H](C#C[C@@H](O)C2CCCCC2)[C@H](O)C[C@H]1Cl", "note": "[Compound No. 32]", "values": [
      {"measurement": "Inhibition rate (%) (percent itch suppression)", "setting": "[1]; [5]", "value": 41.76, "unit": "%"},
      {"measurement": "Efficacy (significance, paired t-test)", "setting": "[1]; concentration 0.00001%", "value": "** (**: P < 0.01)"}
    ]},
    {"smiles": "CCCCC[C@H](O)/C=C/[C@H]1[C@H](O)CC(=O)[C@@H]1CCCCCCC(=O)O", "note": "[PGE1]", "values": [
      {"measurement": "transepidermal water loss (TEWL) compared to the solvent-applied control group", "setting": "BALB/c male mice [2]", "value": "no significant difference from the control group"},
      {"measurement": "transepidermal water loss (TEWL) compared to the control group", "setting": "BALB/c male mice [3]", "value": "significant decrease in TEWL"}
    ]},
    {"smiles": "CCCCC[C@H](O)/C=C/[C@@H]1[C@@H](C/C=C\\CCCC(=O)O)[C@@H](O)C[C@H]1O", "note": "[PGF2α]", "values": [
      {"measurement": "transepidermal water loss (TEWL) compared to the solvent-applied control group", "setting": "BALB/c male mice [2]", "value": "no significant difference from the control group"},
      {"measurement": "transepidermal water loss (TEWL) compared to the control group", "setting": "BALB/c male mice [3]", "value": "no significant difference from the control group"}
    ]},
    {"smiles": "C=CC[C@@H]1/C=C(\\C)C[C@H](C)C[C@H](OC)[C@H]2O[C@@](O)(C(=O)C(=O)N3CCCC[C@H]3C(=O)O[C@H](/C(C)=C/[C@@H]3CC[C@@H](O)[C@H](OC)C3)[C@H](C)[C@@H](O)CC1=O)[C@H](C)C[C@@H]2OC", "note": "[tacrolimus, reference compound]", "values": [
      {"measurement": "dermatitis score suppressing action compared to the vehicle group", "setting": "[4]", "value": "significant dermatitis score suppressing action"}
    ]}
  ]
}
